Where “and” joins values, the source holds several entries; their conditions need not be identical. Equal values may be shown once. Entries after “also recorded” stand apart in the source; their conditions may differ. Read-outs that look alike come from different tables or passages of the source.

In series [1] the test system is human neutrophils. Particulars: cited from earlier work.
A short description of series [2]: HL-60 cell growth and viability. The format is cell-based, human. Particulars: human, hl-60 cells, 8 nM PMA, 24 h. As to the method:
(§1) The HL-60 cells (obtained from the American Type Culture Collection, ATCC CCL240) were grown at 37° as a suspension culture in 175 cm^2 Nunc tissue culture flasks (Vangard International, Neptune, N.J.). The cells were subcultured at a density of 0.25×10^6 cells/ml and used between passage numbers 30 and 40.
(§2) Cells were centrifuged at 600 g for 3 min, and added at 1×10^5 cells per well in 12-well culture dishes. Medium, PMA, and long-chain bases (prepared as the 1:1 molar complex with fatty acid-free bovine serum albumin) at the indicated concentrations were added for a total volume of 2.0 ml. After the desired times, the cells in suspension were counted and checked for viability (trypan blue exclusion) with a hemacytometer. The attached cells were quantitated by measuring DNA content according to the method of West et al (Anal. Biochem., 147, 289-295, 1985) and by assaying for acid phosphatase according to the method of Schnyder (J. Exp. Med., 148, 434-445, 1978).

The test system of series [3] is HL-60 cells. The experiment in a line: HL-60 cell growth and viability. The series is classed as cell-based, human. Particulars: Homo sapiens, HL-60, 24 h, read-out: inhibition of growth of HL-60 cells. As to the method:
as §1, §2

The subject of series [4] is HL-60 cells. In words: PMA-induced adherence (attachment) of HL-60 cells. The format is cell-based, human. As to the method: as §2
Series [5] deals with HL-60 cells. In words: Acid phosphatase activities of suspended and attached HL-60 cells. The series is classed as cell-based, human. As to conditions: 8 nM PMA, 0 μM sphinganine. The protocol:
as §2

Series [6] concerns HL-60 cells. The experiment in a line: Morphology and marker enzymes (ANA esterase, acid phosphatase) of HL-60 cells on day 3. The series is classed as cell-based, human. As to conditions: 8 nM PMA, 0 μM sphinganine, 3 days. The text has this: Expression of most other signs of HL-60 cell differentiation requires longer time periods after treatment with PMA. For these experiments, the cells were examined on day 3 for adherence and acid phosphatase activity (Table IV) and morphology and the marker enzymes alpha-naptholacetate (ANA) esterase and acid phosphatase (Table V).

The subject of series [7] is human neutrophils. In words: Oxygen consumption (oxidative burst) of human neutrophils. As to conditions: for IC50: oxidative burst, PMA activation, read-out: Concentration required for 50% inhibition. The format is cell-based. An excerpt: Human neutrophils were obtained by continuous flow leukapheresis from normal adults. Residual erythrocytes were removed by hypotonic lysis with a resulting purity of >95% neutrophils. Alternatively peripheral blood was obtained by phlebotomy and neutrophils were isolated by HESPAN (6% Hetastarch, 0.9% NaCl) sedimentaion of erythrocytes, centrifugation through lymphocyte separation medium (9.4% sodium diatrizoate, 6.2% Ficoll), and hypotonic lysis of residual erythrocytes. Isolated cells were resuspended in phosphate buffered saline (PBS)-glucose, containing 0.6 mM CaCl2, 2.6 mM KCl, 1.5 mM KH2 PO4, 0.5 mM MgCl2, 136 mM NaCl, 8 mM Na2 HPO4, 5.5 mM glucose.
Oxygen consumption was measured using a Clark-type electrode with YSI model 53 oxygen monitor. Assays were conducted at 37° C. with 6.5×10^6 cells per ml with a total volume of either 2.5 ml or 4 ml. Effectors were injected into the electrode chamber using a Hamilton syringe. Initial slopes after the addition of the stimuli were used for rate calculations. For activators with a lag prior to the onset of the oxidative burst, maximal rates following the lag were used.

Series [8] relates to human neutrophils. In words: [32P]-phosphate incorporation into TCA-precipitable material of neutrophils. The format is cell-based. As to conditions: PMA (1 μM). As to the method: Neutrophils (1.4×10^8 cells) were preincubated in with 0.5 mCi Na2 H^32 PO4 in buffer containing […] NaCl, 5.56 mM glucose, 10 mM Hepes, and 0.33 mM CaCl2 for a total of 1 hr at 37° C. in a shaking waterbath. Excess unbound counts were removed by centrifugation and resuspension, repeated five times. The cells were then divided into 4 treatment groups (see RESULTS below) containing approximately 3.5×10^7 cells each. All groups were incubated at 37° C. in a shaking waterbath for the same total time. Some samples were incubated 10 min. with sphinganine (40 μM) prior to addition of 1 μM PMA (final concentration), with which they were incubated for an additional 15 min. The reaction was stopped by addition of an equal volume of boiling SDS dissociation buffer (9% SDS, 1% mercaptoethanol, 15% glycerol, 30 mM Tris, pH 7.8). The samples were run on a 12% SDS-polyacrylamide gel using the method of Rudolph and Krueger (Adv. Cyclic Nucleotide Res. 101, 107-133, 1979). The gels were dried using a Bio-Rad model 2400 Gel Slab Dryer. Autoradiography was performed on the dried gels using Kodak X-omat X-ray film and Dupont Cronex intensifying screens. The gels were exposed for 12 hrs at -70° C.
Alternatively, neutrophils were preincubated as described above using 0.1 mCi of ^32 P labeled phosphate. The cells were broken by 5 min. of sonication using an Ultramet III waterbath sonicator, and 5% (final concentration) trichloroacetic acid was added to each sample. […] The precipitate was filtered and washed extensively using an Amicon filtration system and counted using a Beckman LS7000 scintillation counter.

The subject of series [9] is phorbol ester binding site (protein kinase C) of neutrophils. In words: Cellular [3H]-phorbol dibutyrate binding in neutrophils. The arrangement: species or system human. Particulars: 50 μM; 15 min. The protocol:
Neutrophils (1×10^8 cells/ml) were preincubated with the indicated concentration of sphinganine, palmitic acid, or ceramide for five minutes prior to the addition of 50 nM (final concentration) of [^3 H]-phorbol dibutyrate (specific activity of 8.3 Ci/mMole). The cells were incubated an additional 15 min. in a shaking waterbath at 37° C. The incubation mixtures were filtered using an Amicon filtration manifold model VFM-III and washed 5 times with 5 mls of ice-cold PBS-glucose. The filters were counted using a Beckman LS7000 scintillation counter.

A further series deals with protein kinase C. The experiment in a line: Triton X-100 mixed micellar assay for protein kinase C activity. The format is biochemical, rat. Particulars: mixed micellar assay. As to the method:
Protein kinase C was partially purified from rat brain as described by Hanrun et al (J. Biol. Chem., 260, 10043, 1985), which is hereby incorporated by reference.
Protein kinase C was assayed with Triton X-100 mixed micelles as described by Hanrun et al, (ibid.), Sphingosine was dried down with the lipid cofactors.

For `CC1CNCCN1S(=O)(=O)c1cccc2cnccc12` (stereo not shown) [H-7], in the series on human neutrophils [1], the “inhibition of the respiratory burst in human neutrophils” value is reported as “incapable of inhibiting”.

For `NCCNS(=O)(=O)c1cccc2cnccc12` [H-9], in the series with human neutrophils [1], the “inhibition of the respiratory burst in human neutrophils” value was “incapable of inhibiting”.

By viability is commonly meant a read-out of living cells in per cent, often relative to untreated cells. By inhibition is commonly meant the share of the control response that was lost under treatment. Regarding `CCCCCCCCCCCCCC(=O)O[C@@H]1[C@@H](C)[C@@]2(O)[C@@H](C=C(CO)C[C@]3(O)C(=O)C(C)=C[C@@H]23)[C@@H]2C(C)(C)[C@]12OC(C)=O` [PMA, Phorbol 12-myristate 13-acetate, reference compound], in [2] (0 μM sphinganine, read-out: Percent viability of suspended cells), the viability at 24 h, 0.008 µM was found to be 60%. Moreover, the viability at 24 h, 0.008 µM in series [2] (read-out: % Viability) came out at 80%. In addition, the inhibition at 0.008 µM in the series on HL-60 cells [3] is 70%. In addition, the “number of adherent cells” value with HL-60 cells [4] (8 nM PMA alone, 24 h) was 0.76 ×10^5. Further, the “Adherent cells (%)” value in the series on HL-60 cells [4] (8 nM PMA, 0 μM sphinganine, 72 h) was determined as 96%. Also, in the series with HL-60 cells [4] (8 nM PMA, 24 h), the “% Adherence” value was 61% and 61.3 ± 1.0%. In the series with HL-60 cells [5] (24 h), the “Acid phosphatase activity, Adherent” value stood at 0.52 ± 0.01 nmol/h/dish; the “Acid phosphatase activity, Suspended” value came out at 0.11 ± 0.05 nmol/h/dish; the “Adherence (% of total)” value was 83 % of total. Besides, in the series on HL-60 cells [5] (72 h), the “Acid phosphatase activity, Adherent” value is 2.20 ± 0.09 nmol/h/dish; the “Acid phosphatase activity, Adherent (%)” value stood at 98%; the “Acid phosphatase activity, Suspended” value is recorded as 0.05 ± 0.01 nmol/h/dish. The same compound returned an Acid phosphatase in the series on HL-60 cells [6] (adherent cells) of 0.60 nmol/h/105 cells. In the series with HL-60 cells [6] (suspended cells), the Acid phosphatase was found to be 0.30 nmol/h/105 cells. Further, the “RATE of oxygen consumption, NO SPHINGANINE” value in the series with human neutrophils [7] (activator alone) is listed as 4.3 nmols O2 consumed/min/10^6 cells. The “[32P]-phosphate incorporation into TCA-precipitable material” value with human neutrophils [8] is 4912 COUNTS PER MINUTE.

As to `CCCCCCCCCCCCCCCC(=O)O` [Palmitic acid, reference compound], in the series on human neutrophils [7] (Homo sapiens, Neutrophil), the IC50 is more than 100 µM. Besides, in series [9], the “displacement of [3H]-phorbol dibutyrate” value was 3%.

Consider Ceramide, for which, in the series with HL-60 cells [4] (8 nM PMA), the “inhibition of PMA-induced attachment” value was “not inhibitory”. The “inhibition of protein kinase C (specificity)” value with protein kinase C is listed as “did not activate or inhibit”; with protein kinase C (listed as ceramide), “without effect; also recorded: not to be inhibitors”. In addition, the IC50 in the series on human neutrophils [7] was more than 100 µM. Besides, the “displacement of [3H]-phorbol dibutyrate” value in series [9] worked out at 18%.

Source of the values: patent US4937232A, “Inhibition of protein kinase C by long-chain bases” (priority 1988, dated 1990).
